Results reported in patent US20060019936A1 (priority 2004, published 2006).
“Also recorded” adds a separate entry of the source. Read-outs that look alike come from different tables or passages of the source.

What was measured:
[1] = molecular target: T1, rabbit uterine ER (Oryctolagus cuniculus, UniProt G1SML6); test: Radiometric competitive binding assay for the ER (RBA); conditions: RBA for estradiol is 100
T1 construct: from tissue; host or cells: rabbit uterus
T1 sequence (G1SML6 1-598): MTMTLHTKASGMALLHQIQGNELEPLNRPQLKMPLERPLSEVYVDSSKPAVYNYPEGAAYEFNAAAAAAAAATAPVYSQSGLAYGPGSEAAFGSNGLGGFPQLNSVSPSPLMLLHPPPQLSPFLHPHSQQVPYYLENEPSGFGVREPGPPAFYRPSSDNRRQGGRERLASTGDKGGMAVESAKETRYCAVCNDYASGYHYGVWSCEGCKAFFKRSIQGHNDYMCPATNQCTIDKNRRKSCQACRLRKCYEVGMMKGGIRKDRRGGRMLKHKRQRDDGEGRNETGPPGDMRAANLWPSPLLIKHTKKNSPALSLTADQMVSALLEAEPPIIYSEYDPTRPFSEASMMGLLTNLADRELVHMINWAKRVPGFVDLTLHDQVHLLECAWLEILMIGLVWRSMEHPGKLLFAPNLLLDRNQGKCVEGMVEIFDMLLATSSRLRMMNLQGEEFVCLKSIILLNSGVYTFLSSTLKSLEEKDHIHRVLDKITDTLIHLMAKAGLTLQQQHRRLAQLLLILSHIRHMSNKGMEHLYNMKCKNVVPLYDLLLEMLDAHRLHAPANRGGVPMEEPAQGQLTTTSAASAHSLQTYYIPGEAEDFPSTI

[2] = test system: self complementary octamer deoxyoligonucleotide; test: Reactivity with DNA (piperidine labile sites); format: biochemical
[3] = test system: MCF-7 (ER+) breast cancer cells; test: Toxicity toward MCF-7 breast cancer cells; format: cell-based
[4] = test system: MDA-MB231 (ER−) breast cancer cells; format: cell-based
[5] = pH 7.4
[6] = molecular target: T2, portion of the ER containing the estradiol binding site (Homo sapiens, UniProt P03372); test: Electrophoretic gel mobility shift assay of DNA adducts with ER
T2 sequence (P03372 311-547 limits assumed): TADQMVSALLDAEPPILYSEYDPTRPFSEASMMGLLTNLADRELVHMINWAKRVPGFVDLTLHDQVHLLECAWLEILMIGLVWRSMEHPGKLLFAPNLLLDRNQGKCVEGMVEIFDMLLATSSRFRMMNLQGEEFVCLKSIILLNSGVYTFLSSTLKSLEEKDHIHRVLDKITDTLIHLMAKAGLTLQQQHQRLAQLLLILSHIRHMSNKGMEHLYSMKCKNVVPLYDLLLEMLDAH

[7] = test system: LNCaP cells; format: cell-based, human
[8] = test system: PARP; format: cell-based, human
[9] = test system: LNCaP cells; test: Cell cycle analysis by flow cytometry; format: cell-based, human
[10] = test system: LNCaP cells; format: cell-based, human; remark: listed apart in the source
[11] = test system: p27 (Kip1); format: cell-based, human
[12] = test system: p21 (WAF1/Cip1); format: cell-based, human
[13] = test system: p45 Skp2; format: cell-based, human
[14] = test system: c-Myc; test: c-Myc protein levels in LNCaP cells; format: cell-based, human
[15] = test system: p70S6K; test: Phosphorylation status of p70S6K in LNCaP cells; format: cell-based, human
[16] = test system: LNCaP cells; test: DNA fragmentation by agarose gel electrophoresis; format: cell-based, human; conditions: 20 μM, 24 h exposure
[17] = test system: Bid; test: Bid cleavage analysis; format: cell-based, human; conditions: LNCaP cells

Row | Compound | relative binding affinity (RBA) for the ER [1] | DNA modification, cleaved by piperidine [2] [%] | toxicity [3] | toxicity [4] | logD [5] | complex formation of covalent DNA adducts with ER [6] | other results
1 | CC12CCC3c4ccc(O)cc4CC(CCCCCCOC(=O)NCCCc4ccc(N(CCCl)CCCl)cc4)C3C1CCC2O (centres unmarked) [Compound 9] | low RBAs | 3 | low toxicity | low toxicity | > 5 | – | –
2 | CC12CCC3c4ccc(O)cc4CC(CCCCCCNCCCCc4ccc(N(CCCl)CCCl)cc4)C3C1CCC2O (centres unmarked) [Compound 15] | 40 | – | toxicity similar to that of 1 | toxicity similar to that of 1 | – | form complexes | differential toxicity MCF-7 (ER+) versus MDA-MB231 (ER−) [3]: greater toxicity toward the ER-positive MCF-7 cells
3 | COCCN(CCOC)c1ccc(CCCNC(=O)OCCNCCCCCCC2CC3(C)C(O)CCC3C3CCC4=CC(=O)CCC4=C23)cc1 (stereo not drawn) [11β-dimethoxy] | – | – | – | – | – | – | changes in LNCaP cell shape [7]: slight contraction, which was reversed by 24 h; cleavage of PARP [8]: No cleavage; LNCaP cells in G1 ([9]; 10 uM for 20 hr, flow cytometry): > 90%; cell cycle arrest ([9]; LNCaP cells): halt, albeit transiently, the growth of LNCaP cells in the G1 phase of the cell cycle; apoptotic response [10]: did not activate an apoptotic response; also recorded: does not induce markers of apoptosis; toxic effect / cell killing [10]: transient toxic effect but does not kill cells; levels of p27 [11]: increased; eventual levels of p21 [12]: recovered to basal levels; initial change in levels of p21 [12]: initially decreased; levels of Skp2 [13]: decreased; levels of the c-Myc protein [14]: causes c-Myc levels to drop; effect on p70S6K [15]: inhibits p70S6K
4 | CC12CCC3c4ccc(O)cc4CC(CCCCCCNCCOC(=O)NCCCc4ccc(N(CCCl)CCCl)cc4)C3C1CCC2O (stereo not drawn) [Compound 1, 7α-{N-(2-(N-((N,N-bis-2-chloroethylaminophenyl)propyl)-carbamoyloxy)ethyl)aminohexyl}-3,17β-dihydroxyestra-1,3,5(10)-triene] | excellent affinity | – | – | – | – | – | complex formation of covalent DNA adducts with ER ([6]; gel mobility shift, band eliminated by excess estradiol): form complexes; also recorded: greatest affinity for the ER-LBD; differential toxicity MCF-7 (ER+) versus MDA-MB231 (ER−) ([3]; comparison of the two cell lines): significantly more toxic toward MCF-7 cells than MDA-MB231 cells; also recorded: largest differential toxicity
5 | O=C(O)CCCc1ccc(N(CCCl)CCCl)cc1 [Chlorambucil, reference compound] | – | – | – | – | – | – | changes in LNCaP cell shape [7]: no effect on cellular shape; DNA fragmentation [16]: No changes; cleavage of PARP ([8]; 20 μM, LNCaP cells): No cleavage; Bid cleavage [17]: No changes; apoptotic response ([10]; LNCaP cells, single agent): fails to induce apoptosis; levels of p27 ([11]; LNCaP cells, 20 μM, up to 15 h): without effect; levels of p21 ([12]; LNCaP cells, 20 μM, up to 15 h): potent inducer of p21; levels of Skp2 ([13]; LNCaP cells, 20 μM, up to 15 h): unaffected
6 | CC12CCC3c4ccc(O)cc4CC(CCCCCCNC(=N)NCCCc4ccc(N(CCCl)CCCl)cc4)C3C1CCC2O (centres unmarked) [Compound 7] | comparable affinities | – | – | – | – | form complexes | toxicity at the highest dose [3]: neither compound showed significant toxicity; toxicity at the highest dose [4]: neither compound showed significant toxicity
7 | O=P(NCCO)(c1ccccc1)c1ccccc1 [Compound 12] | comparable affinities | – | low toxicity | low toxicity | high logD values | – | –
8 | CC12CCC3c4ccc(O)cc4CC(CCCCCCNCCNC(=N)NCCCc4ccc(N(CCCl)CCCl)cc4)C3C1CCC2O (centres unmarked) [Compound 5] | low RBAs | – | – | – | – | form complexes; also recorded: virtually all of the modified oligonucleotide formed a slowly migrating band | toxicity at the highest dose [3]: neither compound showed significant toxicity; toxicity at the highest dose [4]: neither compound showed significant toxicity
9 | CC(C)(C)[Si](C)(C)OCCNP(=O)(c1ccccc1)c1ccccc1 [Compound 13] | comparable affinities | 79 | toxicity similar to that of 1 | toxicity similar to that of 1 | – | form complexes | differential toxicity MCF-7 (ER+) versus MDA-MB231 (ER−) [3]: greater toxicity toward the ER-positive MCF-7 cells
10 | CC12CCC3c4ccc(O)cc4CC(CCCCCCNC(=O)CCCc4ccc(N(CCCl)CCCl)cc4)C3C1CCC2O (centres unmarked) [Compound 14] | low RBAs | 14 | low toxicity | low toxicity | > 5 | – | –
